According to patent US20020168436A1, “Decursinol or derivative thereof as analgesic agent” (priority 2000, published 2002):

Assays:
[1] = system: mice administered with β-amyloid(1-42); test: Passive avoidance test in mice given β-amyloid(1-42) into the cerebral ventricle; format: in vivo, mouse; settings: for dementia-preventive effect in passive avoidance test: FIGS. 7A and 7B
Procedure: (§1) The administration of β-amyloid(1-42) to a mouse was carried out in accordance with the method described by Laursen & Belknap(J. Pharmacol. Methods, 16, 355-357 (1986)). Specifically, 5 μl of phosphate-buffered saline containing 1.85 μg of β-amyloid(1-42) was put in a 50 μl Hamilton syringe fitted with a 26 gauge needle, the tip of the needle was inserted into the bregma of the mouse and then the β-amyloid(1-42) solution was administered thereto. Each mouse of a control group received an equal amount of β-amyloid(42-1) in place of β-amyloid(1-42). A passive avoidance test was carried out at days 1-2 (day 1: training, day 2: test) and a Y-maze test, at days 3-4 (day 3: training, day 4: test) after the administration.
In order to examine the learning and memory-retention ability of a mouse, a passive avoidance test was carried out in accordance with the method described in Song et al., J. Neurochem., 71, 875-878 (1998), as follows.
A passive avoidance case equipped with a light room and a dark room was prepared, the floor of the dark room being designed to deliver an electrical shock to a test animal. First, a mouse was put in the light room and, upon entering the dark room, it received an electrical shock at 0.25 mA for 1 sec. Twenty-four hours after the training, the mouse was put in the light room again and the time it took to enter the dark room was measured as a passive avoidance time. The maximum time was set at 300 sec., i.e., in case when the mouse took more than 300 sec. to enter the dark room, the passive avoidance time was determined to be 300 sec.
Forty 4- to 5-week old mice each weighing 20 to 25 g were divided into four groups of equal number. The Angelicae gigas Nakai extract prepared in Example 1 was dissolved in water to concentrations of 0.08% (w/v) and 0.1% (w/v), respectively, and the mice of two groups were provided with the resulting solutions instead of water for 4 weeks at a daily dose of 8 ml of the solution/mouse. The mice of the other two groups were provided with normal drinking water for 4 weeks. Thereafter, the mice of one of the two normal drinking water groups were administered into their cerebral ventricle with 1.85 μg of β-amyloid(42-1) (“control group”) and the mice of the remaining three groups, with β-amyloid(1-42) (Aβ1-42), as in Reference Example 1. Then, a passive avoidance test was carried out for each group of mice as in Reference Example 2 and the data attained were averaged for each group.
Fifty 4- to 5-week old mice each weighing 20 to 25 g were divided into five groups by equal number. Ferulic acid was dissolved in water to concentrations of 0.002 % (w/v), 0.004 % (w/v) and 0.006 % (w/v), respectively, and the mice of three groups were provided with the resulting solutions instead of water for 4 weeks at a daily dose of 8 ml of the solution/mouse. The mice of the other two groups were provided with normal drinking water for 4 weeks. Thereafter, the mice of one of two normal drinking water groups were administered into their cerebral ventricle with 1.85 μg of β-(42-1) (“control group”) and the mice of the remaining four groups, with β-amyloid(1-42) (Aβ1-42), as in Reference Example 1. Then, a passive avoidance test was carried out for each group of mice as in Reference Example 2 and the data attained were averaged for each group.
Forty 4- to 5-week old mice each weighing 20 to 25 g were divided into four groups of equal number. […]

OX-42 = test: Immunohistochemical staining of OX-42 in pyriform cortex and amygdaloid nucleus; format: in vivo, mouse; settings: 0.006% (w/v) in drinking water for 4 weeks; 1 day after β-amyloid(1-42); compared with β-amyloid(1-42) only; FIGS. 8c and 8f
Procedure: 4- to 5-week old mice each weighing 20 to 25 g was divided into three groups. Ferulic acid was dissolved in water to a concentration of 0.006% (w/v), and the mice of one group were provided with the resulting solution instead of water for 4 weeks. The mice of other two groups were provided with normal drinking water for 4 weeks. Thereafter, the mice of one of two normal drinking water groups were administered, into their cerebral ventricle, with 1.85 μg of β-amyloid(42-1) (“control group”) and the mice of the remaining two groups, with β-amyloid(1-42) (Aβ1-42), as in Reference Example 1.
One day after the administration of β-amyloid, each of the mice was anesthetized with sodium pentobarbital and its abdomen was incised. The mouse was fixed by passing 4% paraformaldehyde through its left ventricle and its brain was excised.
In accordance with the method described in Cho et al., J. Comp. Neurol., 369: 264-276(1996), a section was prepared from the excised brain and immunohistochemical staining was carried out in order to stain […] in the pyriform cortex and the amygdaloid nucleus by employing 1:500 dilution of anti-OX-42 antibody (Halan (Sera-Lab)).

[2] = system: choline acetyltransferase (ChAT); test: Immunohistochemical staining of ChAT in septal nucleus; format: in vivo, mouse; settings: 0.006% (w/v) in drinking water for 4 weeks; 5 days after β-amyloid(1-42); FIG. 9c
Procedure: Three groups of mice were administered with ferulic acid and/or β-amyloid in accordance with the method of (1). 5 days after the administration of β-amyloid, immunohistochemical staining was carried out according to the method of (1) except for employing 1:750 dilution of anti-choline-acetyltransferase (ChAT) antibody (Chemicon) in order to stain ChAT, an enzyme for acetylcholine synthesis, in the septal nucleus wherein acetylcholine neurons are distributed.

[3] = system: mice administered with β-amyloid(1-42); test: Y-maze test in mice given β-amyloid(1-42) into the cerebral ventricle; format: in vivo, mouse; settings: for alternation behavior (%): compared with the group given β-amyloid(1-42) only
Procedure: as §1
Spontaneous alternation behavior of a mouse was examined by a Y-maze test in accordance with the method described in Starter et al., Psychopharmacology, 94, 491-495 (1988) as follows.
The Y-maze consisted of three arms shaped like Y. A test mouse was placed in one of the arms such that it faced the arm's terminal and allowed to roan freely through the three arms for […]. The number of alternation was determined by counting the number of occasions the mouse passed the three arms consecutively. Spontaneous alternation behavior was determined as the percentage of the alternation number based on the total number of arm entries.
Further, Y-maze tests were carried out employing the above-prepared mice as in Reference Example 3.
Forty 4- to 5-week old mice each weighing 20 to 25 g were divided into four groups of equal number. Decursinol was dissolved in corn oil, mixed with a mouse fodder, and the mice of two groups were provided with the resulting fodder for 4 weeks at a daily dose of 7.5 mg decursinol/kg or 15 mg decursinol/kg. The mice of the other two groups were provided with a normal mouse fodder containing an equal amount of corn oil as above for 4 weeks. Thereafter, the mice of one of the two normal fodder groups were administered, into their cerebral ventricle, with 1.85 μg of β-(42-1) (“control group”) and the mice of the remaining three groups, with β-amyloid(1-42) (Aβ1-42), as in Reference Example 1. Then, a passive avoidance test and a Y-maze test were carried out for each group of mice as in Reference Examples 2 and 3, respectively, and the data attained were averaged for each group.

[4] = system: primary mouse cortical culture; test: β-amyloid(1-42)-induced leakage of lactate dehydrogenase (LDH) from cultured neurons; format: cell-based; settings: 100 μM, 30 minutes before 25 μM β-amyloid(1-42); 24 and 48 hours; compared with β-amyloid(1-42) group; FIG. 10
Procedure: The culture of mouse cerebral neurons was divided into three groups. Neurons of one group received no treatment (control group). […] The degree of damage in neurons was determined by measuring the concentration of lactate dehydrogenase (LDH), which was released from the damaged or disrupted neurons into the culture medium, in accordance with the method of Wie et al. Samples of the culture medium were taken at 24 and 48 hours after the administration of β-amyloid(1-42), respectively, and their LDH concentrations were measured with a microplate reader.

| LDH concentration in culture medium [4] | SMILES | decrease in the passive avoidance response time ([1]; 0.002, 0.004 and 0.006% (w/v) in drinking water for 4 weeks before β-amyloid(1-42), FIG. 3A) | passive avoidance response time ([1]; 0.006% (w/v) in drinking water for 1, 2, 3 and 4 weeks, FIG. 3B) | dementia-preventive effect in passive avoidance test ([1]; alone in a low amount: 0.002% or 0.003% (w/v) ferulic acid) | OX-42 staining (OX-42) | ChAT staining [2] | number of arm entries (spontaneous movement) ([3]; 0.006% (w/v) for 1 to 4 weeks, FIG. 4B) | alternation behavior (%) ([3]; 0.006% (w/v) for 1 to 4 weeks, FIG. 4A) | decrease in the passive avoidance response time due to β-amyloid(1-42) ([1]; 7.5 or 15 mg/kg daily in fodder for 4 weeks, FIG. 6A) | dementia-preventive effect in passive avoidance test ([1]; alone in a low amount: 2 mg/kg or 3 mg/kg decursinol) | number of arm entries (spontaneous movement) ([3]; 7.5 or 15 mg/kg daily in fodder for 4 weeks, FIG. 6C) | alternation behavior (%) ([3]; 7.5 or 15 mg/kg daily in fodder for 4 weeks, FIG. 6B) |
| --- | --- | --- | --- | --- | --- | --- | --- | --- | --- | --- | --- | --- |
| much lower | COc1cc(/C=C/C(=O)O)ccc1O [ferulic acid] | prevented dose-dependently | becomes increasingly higher with the period of administration | no dementia-preventive effect | much less pronounced | the decrease was suppressed | nearly the same for all groups | higher and increased in proportion to the period of administration |  |  |  |  |
|  | CC1(C)Oc2cc3oc(=O)ccc3cc2C[C@@H]1O [decursinol] |  |  |  |  |  |  |  | prevented | no dementia-preventive effect | nearly the same for all groups | higher and increased dose-dependently |
